Columns and labels:
GST-hRIPK1 (8-327) = GST-hRIPK1 (8-327) (Homo sapiens (Human), UniProt Q13546); assay: Fluorescent Polarization Binding (FP Binding) assay
[1] = tested on: FADD-deficient Jurkat cells; assay: Cellular necroptosis assay (human TNFα-induced necrosis, CellTiter-Glo); format: cell-based; details: Homo sapiens, Jurkat, 48 h, TNFα 10 ng/mL, read-out: Cell IC50

Sequence of GST-hRIPK1 (8-327) (Q13546 8-327): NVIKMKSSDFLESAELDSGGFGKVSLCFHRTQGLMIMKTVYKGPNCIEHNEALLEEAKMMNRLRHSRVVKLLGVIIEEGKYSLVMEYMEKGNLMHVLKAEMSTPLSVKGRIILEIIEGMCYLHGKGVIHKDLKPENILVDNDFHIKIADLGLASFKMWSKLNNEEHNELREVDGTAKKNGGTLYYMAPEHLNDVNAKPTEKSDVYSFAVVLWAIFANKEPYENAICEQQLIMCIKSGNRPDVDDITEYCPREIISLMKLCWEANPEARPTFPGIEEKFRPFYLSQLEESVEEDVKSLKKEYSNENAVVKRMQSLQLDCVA

| IC50 (GST-hRIPK1 (8-327)) [nM] | Structure (SMILES) | IC50 [1] [nM] |
| --- | --- | --- |
| 0.1 to 1000 | CN1C(=O)[C@@H](NC(=O)c2nn(Cc3cncc(C#N)c3)cc2F)COc2cccnc21 [Example 168, (S)-1-((5-cyanopyridin-3-yl)methyl)-4-fluoro-N-(5-methyl-4-oxo-2,3,4,5-tetrahydropyrido[3,2-b][1,4]oxazepin-3-yl)-1H-pyrazole-3-carboxamide] | 0.1 to 1000 |
| 0.1 to 1000 | CN1C(=O)[C@@H](NC(=O)c2nn(Cc3ccccc3F)cc2F)CCc2nccnc21 [Example 178A, (S)-4-fluoro-1-(2-fluorobenzyl)-N-(5-methyl-6-oxo-6,7,8,9-tetrahydro-5H-pyrazino[2,3-b]azepin-7-yl)-1H-pyrazole-3-carboxamide] | 0.1 to 1000 |
| 0.1 to 1000 | C[C@H]1Oc2cccnc2N(C)C(=O)[C@H]1NC(=O)c1cc(Cc2ccccc2)no1 [Example 122, 3-benzyl-N-((2R,3S)-2,5-dimethyl-4-oxo-2,3,4,5-tetrahydropyrido[3,2-b]oxazepin-3-yl)isoxazole-5-carboxamide] | 0.1 to 1000 |
| 0.1 to 1000 | C[C@H]1Oc2cccnc2N(C)C(=O)[C@H]1NC(=O)c1nn(Cc2ccc(F)cc2)cc1F [Example 143, N-((2R,3S)-2,5-dimethyl-4-oxo-2,3,4,5-tetrahydropyrido[3,2-b][1,4]oxazepin-3-yl)-4-fluoro-1-(4-fluorobenzyl)-1H-pyrazole-3-carboxamide] | 0.1 to 1000 |
| 0.1 to 1000 | Cc1nc2c(s1)CC[C@H](NC(=O)c1nnc(Cc3ccccc3)o1)C(=O)N2C [Example 200, (S)-5-benzyl-N-(2,4-dimethyl-5-oxo-5,6,7,8-tetrahydro-4H-thiazolo[4,5-b]azepin-6-yl)-1,3,4-oxadiazole-2-carboxamide] | 0.1 to 1000 |
| 0.1 to 1000 | C[C@H]1Oc2cccnc2N(C)C(=O)[C@H]1NC(=O)c1cn(Cc2ccccc2)cn1 [Example 140, 1-Benzyl-N-((2R,3S)-2,5-dimethyl-4-oxo-2,3,4,5-tetrahydropyrido[3,2-b][1,4]oxazepin-3-yl)-1H-imidazole-4-carboxamide] | 0.1 to 1000 |
| 0.1 to 1000 | C=C1C[C@H](NC(=O)c2cc(Cc3ccccc3)on2)C(=O)N(C)c2ccccc21 [Example 3, (S)-5-benzyl-N-(1-methyl-5-methylene-2-oxo-2,3,4,5-tetrahydro-1H-benzo[b]azepin-3-yl)isoxazole-3-carboxamide] | 0.1 to 1000 |
| 0.1 to 1000 | C[C@H]1Oc2cccnc2N(C)C(=O)[C@H]1NC(=O)c1ncc(Cc2ccccc2)s1 [Example 124, 5-benzyl-N-((2R,3S)-2,5-dimethyl-4-oxo-2,3,4,5-tetrahydropyrido[3,2-b][1,4]oxazepin-3-yl)thiazole-2-carboxamide] | 0.1 to 1000 |
| 0.1 to 1000 | CN1C(=O)[C@@H](NC(=O)c2nnc(Cc3ccccc3)o2)[C@H]2C[C@H]2c2cccnc21 [Example 157B, 5-benzyl-N-((1aS,2S,8bR)-4-methyl-3-oxo-1,1a,2,3,4,8b-hexahydrocyclopropa[d]pyrido[2,3-b]azepin-2-yl)-1,3,4-oxadiazole-2-carboxamide] | 0.1 to 1000 |
| 0.1 to 1000 | N#Cc1cccc(Cc2nnc(C(=O)N[C@@H]3C(=O)Nc4c(F)cc(F)cc4[C@@H]4C[C@H]34)[nH]2)c1 [Example 181B, 5-(3-cyanobenzyl)-N-((1aS,2S,8bR)-5,7-difluoro-3-oxo-1,1a,2,3,4,8b-hexahydrobenzo[b]cyclopropa[d]azepin-2-yl)-4H-1,2,4-triazole-3-carboxamide] | 0.1 to 1000 |
| 0.1 to 1000 | O=C(N[C@H]1COc2cccnc2NC1=O)c1ncc(Cc2ccccc2)s1 [Example 123, (S)-5-benzyl-N-(4-oxo-2,3,4,5-tetrahydropyrido[3,2-b][1,4]oxazepin-3-yl)thiazole-2-carboxamide] | 0.1 to 1000 |
| 0.1 to 1000 | CN1C(=O)[C@@H](NC(=O)c2nnc(C3(c4ccccc4)CC3)o2)CCc2cccnc21 [Example 145A, (S)—N-(9-methyl-8-oxo-6,7,8,9-tetrahydro-5H-pyrido[2,3-b]azepin-7-yl)-5-(1-phenylcyclopropyl)-1,3,4-oxadiazole-2-carboxamide] | 0.1 to 1000 |
| 0.1 to 1000 | C[C@H]1Oc2cccnc2N(C)C(=O)[C@H]1NC(=O)c1cc(Oc2ccccc2F)ccn1 [Example 117, N-((2R,3S)-2,5-dimethyl-4-oxo-2,3,4,5-tetrahydropyrido[3,2-b][1,4]oxazepin-3-yl)-4-(2-fluorophenoxy)picolinamide] | 0.1 to 1000 |
| 0.1 to 1000 | O=C(N[C@H]1CC2(CC2)c2cc(F)cc(F)c2NC1=O)c1nnc(Cc2ccccc2)[nH]1 [Example 103B, (S)-5-benzyl-N-(7,9-difluoro-2-oxo-1,2,3,4-tetrahydrospiro[benzo[b]azepine-5,1′-cyclopropan]-3-yl)-4H-1,2,4-triazole-3-carboxamide] | 0.1 to 1000 |
| 0.1 to 1000 | Cc1nc2c(s1)CC[C@H](NC(=O)c1nnc(Cc3ccccc3)[nH]1)C(=O)N2C [Example 38A, (S)-5-benzyl-N-(2,4-dimethyl-5-oxo-5,6,7,8-tetrahydro-4H-thiazolo[4,5-b]azepin-6-yl)-4H-1,2,4-triazole-3-carboxamide] | 0.1 to 1000 |
| 0.1 to 1000 | Cc1c(F)c(C(=O)N[C@H]2COc3ccccc3N(C)C2=O)nn1Cc1ccccc1 [Example 6, (S)-1-benzyl-4-fluoro-5-methyl-N-(5-methyl-4-oxo-2,3,4,5-tetrahydrobenzo[b][1,4]oxazepin-3-yl)-1H-pyrazole-3-carboxamide] | 0.1 to 1000 |
| 0.1 to 1000 | CN1C(=O)[C@@H](NC(=O)c2nn(Cc3ccccc3)cc2F)CCc2c1cnn2C [Example 114A, (S)-1-benzyl-N-(1,4-dimethyl-5-oxo-1,4,5,6,7,8-hexahydropyrazolo[4,3-b]azepin-6-yl)-4-fluoro-1H-pyrazole-3-carboxamide] | 0.1 to 1000 |
| 0.1 to 1000 | CN1C(=O)[C@@H](NC(=O)c2nn(Cc3ccccn3)cc2F)COc2ccccc21 [Example 55, (S)-4-fluoro-N-(5-methyl-4-oxo-2,3,4,5-tetrahydrobenzo[b][1,4]oxazepin-3-yl)-1-(pyridin-2-ylmethyl)-1H-pyrazole-3-carboxamide] | 0.1 to 1000 |
| 0.1 to 1000 | CN1C(=O)[C@@H](NC(=O)c2nnc(Cc3ccccc3)[nH]2)CC2(CC2)c2cccnc21 [Example 125B, (S)-5-benzyl-N-(9′-methyl-8′-oxo-6′,7′,8′,9′-tetrahydrospiro[cyclopropane-1,5′-pyrido[2,3-b]azepin]-7′-yl)-4H-1,2,4-triazole-3-carboxamide] | 0.1 to 1000 |
| 0.1 to 1000 | CN1C(=O)[C@@H](NC(=O)c2nnc([C@@H]3CCc4ccccc43)[nH]2)COc2cccnc21 [Example 54A, 5-((R)-2,3-dihydro-1H-inden-1-yl)-N—((S)-5-methyl-4-oxo-2,3,4,5-tetrahydropyrido[3,2-b][1,4]oxazepin-3-yl)-4H-1,2,4-triazole-3-carboxamide] | 0.1 to 1000 |
| 0.1 to 1000 | CN1C(=O)[C@@H](NC(=O)c2nnc(Cc3ccccc3)o2)C2(CC2)Oc2cccnc21 [Example 160A, (S)-5-benzyl-N-(5′-methyl-4′-oxo-4′,5′-dihydro-3′H-spiro[cyclopropane-1,2′-pyrido[3,2-b][1,4]oxazepin]-3′-yl)-1,3,4-oxadiazole-2-carboxamide] | 0.1 to 1000 |
| 0.1 to 1000 | C[C@H]1Oc2cccnc2N(C)C(=O)[C@H]1NC(=O)c1nn(Cc2ccccc2)cc1Cl [Example 132, 1-Benzyl-4-chloro-N-((2R,3S)-2,5-dimethyl-4-oxo-2,3,4,5-tetrahydropyrido[3,2-b][1,4]oxazepin-3-yl)-1H-pyrazole-3-carboxamide] | 0.1 to 1000 |
| 0.1 to 1000 | CN1C(=O)[C@@H](NC(=O)c2nnc(C3(c4ccccc4)CC3)s2)COc2ccccc21 [Example 58, (S)—N-(5-methyl-4-oxo-2,3,4,5-tetrahydrobenzo[b][1,4]oxazepin-3-yl)-5-(1-phenylcyclopropyl)-1,3,4-thiadiazole-2-carboxamide] | 0.1 to 1000 |
| 0.1 to 1000 | O=C(N[C@@H]1C(=O)Nc2ncccc2[C@@H]2C[C@H]12)c1nnc(Cc2ccccc2)[nH]1 [Example 110B, 5-benzyl-N-((1aS,2S,8bR)-3-oxo-1,1a,2,3,4,8b-hexahydrocyclopropa[d]pyrido[2,3-b]azepin-2-yl)-4H-1H-1,2,4-triazole-3-carboxamide] | 0.1 to 1000 |
| 1000 to 10000 | CN1C(=O)[C@@H](NC(=O)c2ncc(C3(c4ccccc4)CC3)[nH]2)COc2cccnc21 [Example 99, (S)—N-(5-methyl-4-oxo-2,3,4,5-tetrahydropyrido[3,2-b][1,4]oxazepin-3-yl)-5-(1-phenylcyclopropyl)-1H-imidazole-2-carboxamide] | 0.1 to 1000 |

| Structure (SMILES) | IC50 (GST-hRIPK1 (8-327)) [nM] | IC50 [1] [nM] |
| --- | --- | --- |
| O=C(N[C@H]1COc2cccnc2NC1=O)c1nn(Cc2ccccc2)cc1F [Example 57, (S)-1-benzyl-4-fluoro-N-(4-oxo-2,3,4,5-tetrahydropyrido[3,2-b][1,4]oxazepin-3-yl)-1H-pyrazole-3-carboxamide] | 0.1 to 1000 | 0.1 to 1000 |
| O=C(N[C@H]1CCc2ccccc2-n2ccnc21)c1cc(Oc2ccccc2F)cnn1 [Example 116, (S)—N-(5,6-dihydro-4H-benzo[f]imidazo[1,2-a]azepin-4-yl)-5-(2-fluorophenoxy)pyridazine-3-carboxamide] | 0.1 to 1000 | 0.1 to 1000 |
| CN1C(=O)[C@@H](NC(=O)c2ncc(Cc3cccc(C#N)c3)s2)COc2ccccc21 [Example 164, (S)-5-(3-cyanobenzyl)-N-(5-methyl-4-oxo-2,3,4,5-tetrahydrobenzo[b][1,4]oxazepin-3-yl)thiazole-2-carboxamide] | 0.1 to 1000 | 0.1 to 1000 |
| CN1C(=O)[C@@H](NC(=O)c2nnc(Cc3ccccc3)[nH]2)CC2(CC2)c2ccccc21 [Example 44, (S)-5-benzyl-N-(1-methyl-2-oxo-1,2,3,4-tetrahydrospiro[benzo[b]azepine-5,1′-cyclopropan]-3-yl)-4H-1,2,4-triazole-3-carboxamide] | 0.1 to 1000 | 0.1 to 1000 |

From patent publication US10604535B2, “Compounds, compositions and methods” (Denali Therapeutics Inc., priority 2016, dated 2020)
